Reference: article PMC9239059, “Structure-Guided Synthesis of FK506 and FK520 Analogs with Increased Selectivity Exhibit In Vivo Therapeutic Efficacy against Cryptococcus” (mBio, 2022)
≈ marks a conversion by molar mass, not a printed value.

What was measured:
FKBP12 [1] = target: T1, FKBP12 (Aspergillus fumigatus, UniProt Q4WLV6); assay: BLI, compound-mediated ternary complex formation, […] compound; assay type: binding
T1 construct: gene fpr1A; biotinylated (Avi-tagged) FKBP12; with CnA-CnB-calmodulin

[2] = system: T2, Cryptococcus neoformans (H99); assay: microbe, parasite or virus in culture; set-up: CLSI M27-A3 broth microdilution in RPMI 1640 at 37 C, growth inhibition of C. neoformans (MIC)
T2 construct: H99
Method: In vitro antifungal activities of FK506, FK520, and analogs were assessed in RPMI 1640 (Sigma-Aldrich) for all strains tested. MICs/minimum effective concentrations (MECs) for each drug were measured using modified Clinical and Laboratory Standards Institute (CLSI) M38-A2 and M27-A3 standard in vitro antifungal susceptibility protocols. Broth microdilution assays for MIC/MEC assessment were performed as described previously ([33]). All antifungal assays with C. neoformans were performed at 37°C. Antifungal susceptibility testing for C. albicans was performed in the presence of a uniform 1 μg/mL concentration of fluconazole to sensitize the organism to calcineurin inhibition. MICs/minimum effective concentrations (MECs) were determined for each of the novel analogs against the three major human fungal pathogens, A. fumigatus, C. neoformans, and C. albicans. […] Thus, analogs of FK506 and FK520 can tolerate up to 100-fold reduction in antifungal activity and still be considered for in vivo testing. For C. neoformans, MICs were the most uniform and ranged from 0.2 to 2 μg/mL, which is between 4- and 40-fold reduced for antifungal activity. C. albicans MICs ranged from 0.2 to 6.25 μg/mL, which is between 10- and 312.5-fold reduced for activity. Despite being one of the most difficult to treat fungal infections, all six analogs were active against A. fumigatus with MECs ranging from 1 to 2 μg/mL or a 62.5- to 125-fold reduction in activity.

FKBP12 [3] = target: T3, FKBP12 (Candida albicans, UniProt C4YFI3+C4YS24+P28870); assay: BLI, compound-mediated ternary complex formation, […] compound; assay type: binding
T3 construct: gene RBP1; biotinylated (Avi-tagged) FKBP12; with CnA-CnB-calmodulin
T3 sequence (P28870 whole entry): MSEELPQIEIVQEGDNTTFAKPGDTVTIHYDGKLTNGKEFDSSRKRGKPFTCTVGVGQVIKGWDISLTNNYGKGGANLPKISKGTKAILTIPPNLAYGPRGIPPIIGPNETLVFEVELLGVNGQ
T3 sequence (C4YFI3 54-445): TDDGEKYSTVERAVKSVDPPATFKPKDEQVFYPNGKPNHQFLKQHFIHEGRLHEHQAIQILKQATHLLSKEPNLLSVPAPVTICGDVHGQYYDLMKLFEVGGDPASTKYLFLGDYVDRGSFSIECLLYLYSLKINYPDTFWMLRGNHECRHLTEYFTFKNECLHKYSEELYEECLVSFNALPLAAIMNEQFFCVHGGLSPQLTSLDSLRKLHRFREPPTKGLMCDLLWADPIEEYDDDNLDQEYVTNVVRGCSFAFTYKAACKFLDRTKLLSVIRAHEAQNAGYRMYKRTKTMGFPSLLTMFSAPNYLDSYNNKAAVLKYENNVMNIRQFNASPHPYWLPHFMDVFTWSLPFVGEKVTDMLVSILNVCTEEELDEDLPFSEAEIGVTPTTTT
T3 sequence (C4YS24 1-173): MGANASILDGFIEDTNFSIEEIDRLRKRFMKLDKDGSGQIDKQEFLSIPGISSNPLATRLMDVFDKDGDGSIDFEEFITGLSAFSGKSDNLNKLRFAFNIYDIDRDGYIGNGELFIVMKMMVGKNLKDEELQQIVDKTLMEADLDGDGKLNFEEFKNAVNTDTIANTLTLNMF
T3 sequence (P23286 whole entry partner): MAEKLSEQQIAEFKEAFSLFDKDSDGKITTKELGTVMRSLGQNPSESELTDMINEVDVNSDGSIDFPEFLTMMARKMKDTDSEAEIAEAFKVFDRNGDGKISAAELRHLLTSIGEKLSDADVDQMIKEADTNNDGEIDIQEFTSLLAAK

T1 sequence (Q4WLV6 whole entry): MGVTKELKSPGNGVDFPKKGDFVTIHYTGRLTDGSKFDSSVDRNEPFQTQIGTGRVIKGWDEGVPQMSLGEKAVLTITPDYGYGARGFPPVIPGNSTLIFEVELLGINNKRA
T1 sequence (Q4WUR1 whole entry partner): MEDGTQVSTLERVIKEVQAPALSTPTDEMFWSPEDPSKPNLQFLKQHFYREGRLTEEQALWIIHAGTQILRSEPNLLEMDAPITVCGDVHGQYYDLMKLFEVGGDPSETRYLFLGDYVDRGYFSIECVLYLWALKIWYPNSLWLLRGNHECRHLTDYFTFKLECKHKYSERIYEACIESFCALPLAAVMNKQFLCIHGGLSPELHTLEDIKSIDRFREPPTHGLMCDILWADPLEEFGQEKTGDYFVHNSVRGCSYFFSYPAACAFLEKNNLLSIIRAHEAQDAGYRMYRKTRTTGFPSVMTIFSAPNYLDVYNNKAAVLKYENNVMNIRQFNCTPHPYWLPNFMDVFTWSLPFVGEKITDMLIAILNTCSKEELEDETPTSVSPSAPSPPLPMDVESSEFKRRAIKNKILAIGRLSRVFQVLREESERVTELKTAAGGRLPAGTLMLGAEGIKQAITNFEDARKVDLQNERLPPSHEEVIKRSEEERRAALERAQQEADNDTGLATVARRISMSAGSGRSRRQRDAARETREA

## C=CC[C@@H]1/C=C(\C)C[C@H](C)C[C@H](OC)[C@H]2O[C@@](O)(C(=O)C(=O)N3CCCC[C@H]3C(=O)O[C@H](/C(C)=C/[C@@H]3CC[C@@H](O)[C@H](OC)C3)[C@H](C)[C@@H](O)C/C1=N/NC(=O)CC)[C@H](C)C[C@@H]2OC [JH-FK-02]
FKBP12 [1]
  BLI, compound-mediated ternary complex formation, 10 μM compound: target complexes form in the presence of the analogs with affinities similar to those of the parent compounds
[2]; Cryptococcus neoformans, read-out: MIC (μg/mL) against: / Cryptococcus neoformans (H99)^a
  MIC: 2 µg/mL (≈ 2.29 µM)
FKBP12 [3]
  BLI, compound-mediated ternary complex formation, 10 μM compound: target complexes form in the presence of the analogs with affinities similar to those of the parent compounds

## CC[C@@H]1/C=C(\C)C[C@H](C)C[C@H](OC)[C@H]2O[C@@](O)(C(=O)C(=O)N3CCCC[C@H]3C(=O)O[C@H](/C(C)=C/[C@@H]3CC[C@@H](O)[C@H](OC)C3)[C@H](C)[C@@H](O)CC1=O)[C@H](C)C[C@@H]2OC [FK520]
[2]; inhibitor
  MIC (μg/mL) against: / Cryptococcus neoformans (H99)^a: 0.05 µg/mL (≈ 0.0631 µM)
FKBP12 [3]
  BLI, compound-mediated ternary complex formation, 10 μM compound: along with compounds FK506, APX879, FK520, JH-FK-02, and JH-FK-05
